Values quoted from earlier work as cited in patent US11793177B2, “Animal model of Angelman Syndrome” (UNIVERSITY OF SOUTH FLORIDA, priority 2016, dated 2023).

Test system: GR
Conditions: treatment in adulthood; rodent

CC(/C=C/C(=O)NO)=C\[C@@H](C)C(=O)c1ccc(N(C)C)cc1 [TSA]
GR levels in the hippocampus: increased | repressive histone and methylation marks in the hippocampus: reversed
